What follows are molecules tested against Cyclin-dependent kinase 9 (Homo sapiens, UniProt P50750) (assay: LANCE ULight TR-FRET Kinase Assay : CDK9 enzyme activities were measured using LANCE ULight TR-FRET kinase assay reagents (PerkinElmer, Waltham, Mass.). Compounds were diluted in 100% DMSO then diluted with 1:10 in serine/threonine kinase assay buffer containing 20 mM HEPES, 10 mM MgCl2, […], and 0.0075% Triton X-100. Equal volume of the compound dilutions was added to a final reaction mixture containing LANCE detection buffer (PerkinElmer CR97-100), 100 nM ULight MBP (PerkinElmer TRF0109M), 1000 μM ATP, and CDK9/Cyclin T1 (Carna Biosciences 04-110). The kinase reaction was carried out for 1 hour before addition of stopping buffer to a final of 20 mM EDTA and 0.5 nM of LANCE Ultra Europium anti-phospho-MBP antibody (PerkinElmer TRF0201M) in LANCE detection buffer. The reaction was incubated for 1 hour and the signal was read in Envision in TR-FRET mode (excitation at 320 nm and emission at 615/665 nm).).
Cyclin-dependent kinase 9, sequence (P50750 whole entry): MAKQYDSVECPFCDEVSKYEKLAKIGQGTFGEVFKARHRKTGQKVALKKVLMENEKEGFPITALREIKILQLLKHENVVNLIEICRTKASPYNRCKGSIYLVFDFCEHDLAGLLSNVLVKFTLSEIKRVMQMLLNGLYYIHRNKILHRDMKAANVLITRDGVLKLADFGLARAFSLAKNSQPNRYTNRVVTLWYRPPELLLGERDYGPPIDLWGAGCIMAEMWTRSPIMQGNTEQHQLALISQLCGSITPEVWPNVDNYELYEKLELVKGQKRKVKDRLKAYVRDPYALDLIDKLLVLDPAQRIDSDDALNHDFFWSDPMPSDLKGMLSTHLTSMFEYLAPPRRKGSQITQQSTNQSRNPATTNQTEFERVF

Row | IC50 | SMILES
1 | 30 nM | CNC(=O)N1CC=C(c2[nH]c3nccc4c3c2CN(C)c2ccc(F)cc2-4)CC1
2 | 38 nM | CN1Cc2c(C3=CCN(S(C)(=O)=O)CC3)[nH]c3ncc(F)c(c23)-c2cc(F)ccc21
3 | 230 nM | CN1Cc2c(C3=CCN(C(=O)OC(C)(C)C)CC3)[nH]c3nccc(c23)-c2cc(F)ccc21

Row | SMILES | IC50
4 | CN(CCO)C(=O)CN1CC=C(c2[nH]c3ncc(F)c4c3c2CN(C)c2ccc(F)cc2-4)CC1 | 100 nM

Source: ChEMBL document CHEMBL3886673, “Tetracyclic CDK9 kinase inhibitors” (2016)
